Measurements reported in patent US8367668B2, “Pyridazinone derivatives” (Merck Patent Gesellschaft mit Beschränkter Haftung, priority 2007, dated 2013).

Biological target: T1, Met kinase (Homo sapiens, UniProt P08581)
T1 construct: 6His (N); purchased Upstate 14-526; host or cells: Sf21 insect cells (S. frugiperda), baculovirus
Assay: Met kinase inhibition (enzyme assay), flashplate method
Format: biochemical
Text: Measurement of Met Kinase Activity
According to the manufacturer's data (Met, active, upstate, catalogue No. 14-526), Met kinase is expressed for the purposes of protein production in insect cells (Sf21; S. frugiperda) and subsequent affinity-chromatographic purification as “N-terminal 6His-tagged” recombinant human protein in a baculovirus expression vector.
The kinase activity can be measured using various available measurement systems. In the scintillation proximity method (Sorg et al., J. of Biomolecular Screening, 2002, 7, 11-19), the flashplate method or the filter binding test, the radioactive phosphorylation of a protein or peptide as substrate is measured using radioactively labelled ATP (^32P-ATP, ^33P-ATP). In the case of the presence of an inhibitory compound, a reduced radioactive signal, or none at all, can be detected. Furthermore, homogeneous time-resolved fluorescence resonance energy transfer (HTR-FRET) and fluoroescence polarisation (FP) technologies can be used as assay methods (Sills et al., J. of Biomolecular Screening, 2002, 191-214).
Flashplate Method (Met Kinase)
The test plates used are 96-well Flashplate® microtitre plates from Perkin Elmer (Cat. No. SMP200). The components of the kinase reaction described below are pipetted into the assay plate. The Met kinase and the substrate poly Ala-Glu-Lys-Tyr, (pAGLT, 6:2:5:1), are incubated for 3 hrs at room temperature with radioactively labelled ^33P-ATP in the presence and absence of test substances in a total volume of 100 μl. The reaction is terminated using 150 μl of a 60 mM EDTA solution. After incubation for a further 30 min at room temperature, the supernatants are filtered off with suction, and the wells are washed three times with 200 μl of 0.9% NaCl solution each time. The measurement of the bound radioactivity is carried out by means of a scintillation measuring instrument (Topcount NXT, Perkin-Elmer).
The full value used is the inhibitor-free kinase reaction. This should be approximately in the range 6000-9000 cpm. The pharmacological zero value used is staurosporin in a final concentration of 0.1 mM. The inhibitory values (IC50) are determined using the RS1_MTS program.
Kinase reaction conditions per well: • 30 μl of assay buffer • 10 μl of substance to be tested in assay buffer with 10% of DMSO • 10 μl of ATP (final concentration 1 μM cold, 0.35 μCi of ^33P-ATP) • 50 μl of Met kinase/substrate mixture in assay buffer; • (10 ng of enzyme/well, 50 ng of pAGLT/well)
50 mM HEPES • 3 mM magnesium chloride • 3 μM sodium orthovanadate • 3 mM manganese(II) chloride • 1 mM dithiothreitol (DTT)
pH=7.5 (to be set using sodium hydroxide)
60 mM Titriplex III (EDTA)
Met kinase: Upstate, Cat. No. 14-526, Stock 1 μg/10 μl; spec. activity 954 U/mg;
Poly-Ala-Glu-Lys-Tyr, 6:2:5:1: Sigma Cat. No. P1152
Pharmacological Data Met Kinase Inhibitions (Enzyme Assay)

T1 sequence (P08581 974-1390 limits assumed): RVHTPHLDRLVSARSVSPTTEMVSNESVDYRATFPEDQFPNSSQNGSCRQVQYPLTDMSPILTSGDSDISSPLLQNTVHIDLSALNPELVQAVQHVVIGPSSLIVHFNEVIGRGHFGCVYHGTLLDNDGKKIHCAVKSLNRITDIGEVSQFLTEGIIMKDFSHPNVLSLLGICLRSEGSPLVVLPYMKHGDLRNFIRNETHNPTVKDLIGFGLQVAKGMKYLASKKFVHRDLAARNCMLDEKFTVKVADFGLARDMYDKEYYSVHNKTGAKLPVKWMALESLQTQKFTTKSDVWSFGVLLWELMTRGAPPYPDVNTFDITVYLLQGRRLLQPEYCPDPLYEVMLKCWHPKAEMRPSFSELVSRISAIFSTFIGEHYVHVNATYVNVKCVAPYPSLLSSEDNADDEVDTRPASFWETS

IC50 | SMILES
10 to 1000 nM | CCOC(=O)Nc1cccc(Cn2nc(-c3cccc(CNC(=O)CCO)c3)ccc2=O)c1 [A105]
10 to 1000 nM | CCOC(=O)Nc1cccc(Cn2nc(-c3cccc(CC(=O)NCCO)c3)ccc2=O)c1 [A72]
10 to 1000 nM | CCOC(=O)CNC(=O)c1ccc(-c2ccc(=O)n(Cc3cccc(NC(=O)OCC)c3)n2)cc1 [A8]
10 to 1000 nM | CCOC(=O)Nc1cccc(Cn2nc(-c3ccc(C(=O)NCCCN4CCOCC4)cc3)ccc2=O)c1 [A27]
10 to 1000 nM | CCOC(=O)CCNC(=O)c1ccc(-c2ccc(=O)n(Cc3cccc(NC(=O)OCC)c3)n2)cc1 [A13]
10 to 1000 nM | CCOC(=O)Nc1cccc(Cn2nc(-c3cccc(C(=O)NCCCN)c3)ccc2=O)c1 [A137]
10 to 1000 nM | CCOC(=O)Nc1cccc(Cn2nc(-c3ccc(C(=O)N(C)CCN(CC)CC)cc3)ccc2=O)c1 [A19]
10 to 1000 nM | CCOC(=O)Nc1cccc(Cn2nc(-c3ccc(CNC(=O)CN4CCNCC4)cc3)ccc2=O)c1 [A143]
10 to 1000 nM | CCOC(=O)Nc1cccc(Cn2nc(-c3cccc(CC(=O)NCCCOC)c3)ccc2=O)c1 [A70]
10 to 1000 nM | CCOC(=O)Nc1cccc(Cn2nc(-c3cccc(CC(=O)NCCCNC(=O)OC(C)(C)C)c3)ccc2=O)c1 [A61]
10 to 1000 nM | CCOC(=O)Nc1cccc(Cn2nc(-c3cccc(CC(=O)NCCN(C)C)c3)ccc2=O)c1 [A65]
10 to 1000 nM | CCOC(=O)Nc1cccc(Cn2nc(-c3ccc(CNC(=O)CN)cc3)ccc2=O)c1 [A134]
10 to 1000 nM | CCOC(=O)Nc1cccc(Cn2nc(-c3cccc(CNC(=O)CCN)c3)ccc2=O)c1 [A135]
10 to 1000 nM | CCOC(=O)Nc1cccc(Cn2nc(-c3ccc(C(=O)NCCN(C)C)cc3)ccc2=O)c1 [A15]
10 to 1000 nM | CCOC(=O)Nc1cccc(Cn2nc(-c3ccc(CNC(=O)CCN(C)C)cc3)ccc2=O)c1 [A83]
10 to 1000 nM | CCOC(=O)Nc1cccc(Cn2nc(-c3cccc(CC(=O)NCCNC(=O)OC(C)(C)C)c3)ccc2=O)c1 [A62]
10 to 1000 nM | CCOC(=O)Nc1cccc(Cn2nc(-c3ccc(C(=O)NCCCN4CCCC4=O)cc3)ccc2=O)c1 [A24]
10 to 1000 nM | CCOC(=O)Nc1cccc(Cn2nc(-c3ccc(C(=O)NCCCN)cc3)ccc2=O)c1 [A130]
10 to 1000 nM | CCOC(=O)Nc1cccc(Cn2nc(-c3ccc(CNC(=O)CO)cc3)ccc2=O)c1 [A85]
10 to 1000 nM | CCOC(=O)Nc1cccc(Cn2nc(-c3ccc(C(=O)NCCCCN4CCCC4)cc3)ccc2=O)c1 [A28]
10 to 1000 nM | CCOC(=O)Nc1cccc(Cn2nc(-c3cccc(CC(=O)NCCOC)c3)ccc2=O)c1 [A68]
10 to 1000 nM | CCOC(=O)Nc1cccc(Cn2nc(-c3ccc(C(=O)NCCN4CCCCC4)cc3)ccc2=O)c1 [A18]
10 to 1000 nM | CCOC(=O)Nc1cccc(Cn2nc(-c3cccc(CNC(=O)CCNC=O)c3)ccc2=O)c1 [A104]
10 to 1000 nM | CCOC(=O)Nc1cccc(Cn2nc(-c3ccc(CC(=O)NCCCN)cc3)ccc2=O)c1 [A148]
10 to 1000 nM | CCOC(=O)Nc1cccc(Cn2nc(-c3ccc(CNC(=O)CCOC)cc3)ccc2=O)c1 [A84]

IC50 | SMILES
10 to 1000 nM | CCOC(=O)Nc1cccc(Cn2nc(-c3ccc(C(=O)NCCCCO)cc3)ccc2=O)c1 [A42]
10 to 1000 nM | CCOC(=O)Nc1cccc(Cn2nc(-c3ccc(C(=O)NCCOC)cc3)ccc2=O)c1 [A3]
10 to 1000 nM | CCOC(=O)Nc1cccc(Cn2nc(-c3ccc(CNC(=O)CCN)cc3)ccc2=O)c1 [A131]
10 to 1000 nM | CCOC(=O)Nc1cccc(Cn2nc(-c3cccc(C(=O)NCCCO)c3)ccc2=O)c1 [A52]
10 to 1000 nM | CCOC(=O)Nc1cccc(Cn2nc(-c3ccc(C(=O)NCCCN4CCCC4)cc3)ccc2=O)c1 [A23]
10 to 1000 nM | CCOC(=O)CN(C)C(=O)c1ccc(-c2ccc(=O)n(Cc3cccc(NC(=O)OCC)c3)n2)cc1 [A9]
10 to 1000 nM | CCOC(=O)Nc1cccc(Cn2nc(-c3ccc(CNC(=O)Cn4ccccc4=O)cc3)ccc2=O)c1 [A76]
10 to 1000 nM | CCOC(=O)Nc1cccc(Cn2nc(-c3cccc(CNC(=O)CO)c3)ccc2=O)c1 [A101]
10 to 1000 nM | CCOC(=O)Nc1cccc(Cn2nc(-c3ccc(CNC(=O)CCN4CCCCC4)cc3)ccc2=O)c1 [A87]
10 to 1000 nM | CCOC(=O)Nc1cccc(Cn2nc(-c3ccc(CNC(=O)CN4CCOCC4)cc3)ccc2=O)c1 [A82]
10 to 1000 nM | CCOC(=O)Nc1cccc(Cn2nc(-c3ccc(CNC(=O)CCN4CCNCC4)cc3)ccc2=O)c1 [A142]
10 to 1000 nM | CCOC(=O)Nc1cccc(Cn2nc(-c3cccc(CNC(=O)CCN4CCN(C(=O)OC(C)(C)C)CC4)c3)ccc2=O)c1 [A108]
10 to 1000 nM | CCOC(=O)Nc1cccc(Cn2nc(-c3cccc(CNC(=O)CN4CCOCC4)c3)ccc2=O)c1 [A98]
10 to 1000 nM | CCOC(=O)Nc1cccc(Cn2nc(-c3ccc(CNC(=O)CN4CCN(C(=O)OC(C)(C)C)CC4)cc3)ccc2=O)c1 [A86]
10 to 1000 nM | CCOC(=O)Nc1cccc(Cn2nc(-c3cccc(CNC(=O)CCOC)c3)ccc2=O)c1 [A100]
10 to 1000 nM | CCOC(=O)Nc1cccc(Cn2nc(-c3ccc(CC(=O)NCCN)cc3)ccc2=O)c1 [A147]
10 to 1000 nM | CCOC(=O)Nc1cccc(Cn2nc(-c3ccc(C(=O)NCCCOC)cc3)ccc2=O)c1 [A16]
10 to 1000 nM | CCOC(=O)Nc1cccc(Cn2nc(-c3ccc(CNC(=O)Cn4cnnn4)cc3)ccc2=O)c1 [A79]
10 to 1000 nM | CCOC(=O)Nc1cccc(Cn2nc(-c3cccc(C(=O)NCCOC)c3)ccc2=O)c1 [A50]
10 to 1000 nM | CCOC(=O)Nc1cccc(Cn2nc(-c3ccc(CNC(=O)CNC(C)=O)cc3)ccc2=O)c1 [A75, ethyl[3-(3-{4-[(2-acetylaminoacetylamino)methyl]phenyl}-6-oxo-6H-pyridazin-1-ylmethyl)phenyl]carbamate]
10 to 1000 nM | CCOC(=O)Nc1cccc(Cn2nc(-c3cccc(CNC(=O)Cn4ccccc4=O)c3)ccc2=O)c1 [A94]
10 to 1000 nM | CCOC(=O)Nc1cccc(Cn2nc(-c3ccc(CNC(=O)CCNC=O)cc3)ccc2=O)c1 [A78]
10 to 1000 nM | CCOC(=O)Nc1cccc(Cn2nc(-c3ccc(-c4nnn[nH]4)cc3)ccc2=O)c1 [A172, ethyl(3-{6-oxo-3-[4-(1H-tetrazol-5-yl)phenyl]-6H-pyridazin-1-ylmethyl}phenyl)carbamate]
10 to 1000 nM | CCOC(=O)Nc1cccc(Cn2nc(-c3cccc(C(=O)NCCO)c3)ccc2=O)c1 [A49]
10 to 1000 nM | CCOC(=O)Nc1cccc(Cn2nc(-c3cccc(C(=O)NCCCCN(C)C)c3)ccc2=O)c1 [A46]

SMILES | IC50
CCOC(=O)Nc1cccc(Cn2nc(-c3ccc(CC(=O)NCCCCNC(=O)OC(C)(C)C)cc3)ccc2=O)c1 [A54, ethyl[3-(3-{4-[(4-tert-butoxycarbonylaminobutyl-carbamoyl)methyl]phenyl}-6-oxo-6H-pyridazin-1-ylmethyl)phenyl]-carbamate] | 10 to 1000 nM
